Where “and” joins values, the source holds several entries; their conditions need not be identical. Equal entries are not always repeated.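 The concentration for 50% growth inhibition is given as GI50. TGI: total growth inhibition.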
Tests used:
Experiment in all cases: NCI tumour cell line growth inhibition, 384-well format
786-0 renal = test system: 786-0 renal
SF-268 CNS = test system: SF-268 CNS
RXF 393 renal = test system: RXF 393 renal
K-562 leukemia = test system: K-562 leukemia
LOX IMVI melanoma = test system: LOX IMVI melanoma
NCI-H522 lung = test system: NCI-H522 lung
SF-295 CNS = test system: SF-295 CNS
MALME-3M melanoma = test system: MALME-3M melanoma
MDA-MB-468 breast = test system: MDA-MB-468 breast
NCI-H226 lung = test system: NCI-H226 lung
SK-MEL-28 melanoma = test system: SK-MEL-28 melanoma
UACC-257 melanoma = test system: UACC-257 melanoma
SW-620 colon = test system: SW-620 colon
SN12C renal = test system: SN12C renal
SR leukemia = test system: SR leukemia
MDA-MB-231 breast = test system: MDA-MB-231 breast
OVCAR-3 ovarian = test system: OVCAR-3 ovarian
EKVX NSCLC = test system: EKVX NSCLC
NCI-H460 NSCLC = test system: NCI-H460 NSCLC
IGROV1 ovarian = test system: IGROV1 ovarian
MOLT-4 leukemia = test system: MOLT-4 leukemia
RPMI-8226 leukemia = test system: RPMI-8226 leukemia
PC-3 prostate = test system: PC-3 prostate
NCI-H322M lung = test system: NCI-H322M lung
SK-MEL-5 melanoma = test system: SK-MEL-5 melanoma
DU-145 prostate = test system: DU-145 prostate
SF-539 CNS = test system: SF-539 CNS
M14 melanoma = test system: M14 melanoma
T-47D breast = test system: T-47D breast
HCT-116 colon = test system: HCT-116 colon

Structure (SMILES): O=S(=O)(NCCNC/C=C/c1ccc(Br)cc1)c1cccc2cnccc12
- GI50 ([…]-0 renal): 7.52 µM and 11.2 µM
- TGI (786-0 renal): 20.1 µM and 23.3 µM
- GI50 (SF-268 CNS): 12 µM and 12.9 µM
- TGI (SF-268 CNS): 24.4 µM and 25.6 µM
- GI50 (RXF 393 renal): 1.08 µM and 5.38 µM
- TGI (RXF 393 renal): 8.71 µM and 18 µM
- GI50 (K-562 leukemia): 1.88 µM and 3.3 µM
- TGI (K-562 leukemia): 3.88 µM and 10.6 µM
- GI50 (LOX IMVI melanoma): 11.6 µM and 10.2 µM
- TGI (LOX IMVI melanoma): 23.9 µM and 22 µM
- GI50 (NCI-H522 lung): 12.1 µM and 13.7 µM
- TGI (NCI-H522 lung): 24.6 µM and 26.6 µM
- GI50 (SF-295 CNS): 15.4 µM and 14.7 µM
- TGI (SF-295 CNS): 28.8 µM and 27.9 µM
- GI50 (MALME-3M melanoma): 0.391 µM and 2.09 µM
- TGI (MALME-3M melanoma): 1.62 µM and 4.15 µM
- GI50 (MDA-MB-468 breast): 3.44 µM and 3.33 µM
- TGI (MDA-MB-468 breast): 9.73 µM and 12.7 µM
- GI50 (NCI-H226 lung): 11.2 µM and 15.4 µM
- TGI (NCI-H226 lung): 23.4 µM and 28.8 µM
- GI50 (SK-MEL-28 melanoma): 1.88 µM and 4.09 µM
- TGI (SK-MEL-28 melanoma): 15.6 µM and 14 µM
- GI50 (UACC-257 melanoma): 2.2 µM and 2.34 µM
- TGI (UACC-257 melanoma): 4.51 µM and 5.87 µM
- GI50 (SW-620 colon): 14 µM and 14.8 µM
- TGI (SW-620 colon): 27.1 µM and 28.2 µM
- GI50 (SN12C renal): 13.4 µM and 13.1 µM
- TGI (SN12C renal): 26.3 µM and 25.8 µM
- GI50 (SR leukemia): 0.34 µM and 3.27 µM
- TGI (SR leukemia): 1.15 µM and 5.05 µM
- GI50 (MDA-MB-231 breast): 11.5 µM and 10.9 µM
- TGI (MDA-MB-231 breast): 23.8 µM and 22.9 µM
- GI50 (OVCAR-3 ovarian): 11.3 µM and 14.7 µM
- TGI (OVCAR-3 ovarian): 23.4 µM and 28 µM
- GI50 (EKVX NSCLC): 6.07 µM and 10 µM
- TGI (EKVX NSCLC): 18.9 µM and 21.7 µM
- GI50 (NCI-H460 NSCLC): 4.63 µM and 4.23 µM
- TGI (NCI-H460 NSCLC): 15.9 µM and 14.5 µM
- GI50 (IGROV1 ovarian): 11.1 µM
- TGI (IGROV1 ovarian): 23.3 µM
- GI50 (MOLT-4 leukemia): 2.47 µM and 3.65 µM
- TGI (MOLT-4 leukemia): 6.41 µM and 12.7 µM
- GI50 (RPMI-8226 leukemia): 0.815 µM and 3.15 µM
- TGI (RPMI-8226 leukemia): 5.43 µM and 11.4 µM
- GI50 (PC-3 prostate): 3.6 µM and 6.95 µM
- TGI (PC-3 prostate): 18.6 µM and 19.8 µM
- GI50 (NCI-H322M lung): 10.2 µM and 10.7 µM
- TGI (NCI-H322M lung): 21.9 µM and 22.6 µM
- GI50 (SK-MEL-5 melanoma): 2.89 µM and 3.31 µM
- TGI (SK-MEL-5 melanoma): 10.1 µM and 12.7 µM
- GI50 (DU-145 prostate): 14.5 µM and 13.8 µM
- TGI (DU-145 prostate): 27.8 µM and 26.9 µM
- GI50 (SF-539 CNS): 5.11 µM and 10.2 µM
- TGI (SF-539 CNS): 19.7 µM and 21.9 µM
- TGI (M14 melanoma): 3.48 µM and 18.4 µM
- GI50 (T-47D breast): 2.78 µM and 4.36 µM
- TGI (T-47D breast): 13.3 µM and 16.8 µM
- GI50 (HCT-116 colon): 5.55 µM and 5.73 µM
- TGI (HCT-116 colon): 17.9 µM and 17.3 µM
